Laboratory results: article PMC9867029, “Effect of Salts on the Conformational Dynamics of the Cytochrome P450 OleP” (Molecules, 2023)

Biological target: T1, OleP (CYP107D1) (Streptomyces antibioticus, UniProt Q59819)
T1 sequence (Q59819 1-407): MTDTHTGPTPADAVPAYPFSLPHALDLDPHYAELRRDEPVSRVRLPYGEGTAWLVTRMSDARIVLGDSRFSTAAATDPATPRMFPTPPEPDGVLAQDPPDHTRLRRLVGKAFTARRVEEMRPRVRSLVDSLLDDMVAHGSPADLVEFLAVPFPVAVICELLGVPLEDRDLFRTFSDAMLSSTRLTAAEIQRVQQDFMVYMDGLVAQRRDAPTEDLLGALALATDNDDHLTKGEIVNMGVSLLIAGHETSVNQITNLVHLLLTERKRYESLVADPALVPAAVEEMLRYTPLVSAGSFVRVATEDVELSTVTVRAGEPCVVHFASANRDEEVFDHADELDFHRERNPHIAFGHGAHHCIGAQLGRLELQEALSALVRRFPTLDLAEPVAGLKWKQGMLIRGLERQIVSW
Assay: UV-visible Soret spectral titration (type I shift), global hyperbolic fit
Format: binding
From the text: UV-visible Soret spectral titration (type I shift), global hyperbolic fit on OleP (CYP107D1)

CC[C@H]1OC(=O)[C@H](C)[C@@H](O)[C@H](C)[C@@H](O)[C@@H](C)C[C@@H](C)C(=O)[C@H](C)[C@@H](O)[C@H]1C [6DEB] gave a Kd of 3.83 ± 0.06 µM.
